The values below come from ChEMBL document CHEMBL4376820, “Homodimeric Tobramycin Adjuvant Repurposes Novobiocin as an Effective Antibacterial Agent against Gram-Negative Bacteria” (J Med Chem, 2019).

As a reminder, the MIC is the lowest concentration that inhibits growth of the organism.

Values after ≈ are worked out from the molar mass of the structure shown. Active and inactive are the calls of the source. The rule behind the calls is not given here. Positions of bridges follow the written chain, without caps; N, C: chain ends. Non-standard residues stand in square brackets, D forms with d. Residues, ends and D or L forms follow the SMILES beside them. Dab = NCC[C@H](N)C(=O)O A value given as a limit tells only on which side of the number the result lay.

For series [1], the system named is Acinetobacter baumannii. The series can be described thus: Antibacterial activity against novobiocin-resistant Acinetobacter baumannii ATCC 17978 mutant generated from seven serial passages by checkerboard assay. Format: functional.
Series [2] relates to Acinetobacter baumannii. In words: Antibacterial activity against novobiocin and test compound-resistant Acinetobacter baumannii ATCC 17978 mutant generated from seven serial passages in presence of novobiocin by checkerboard assay. The series is classed as functional.
Series [3] deals with Pseudomonas aeruginosa. The series can be described thus: Induction of outer membrane permeabilization in Pseudomonas aeruginosa PAO1 assessed as increase in accumulation of NPN by measuring fluorescence intensity at 14 ug/ml measured immediately by NPN dye uptake assay. The series is classed as organism-based.
For series [4], the system named is Acinetobacter baumannii. The series can be described thus: Antibacterial activity against wild type Acinetobacter baumannii ATCC 17978 by checkerboard assay. Format: functional.
Series [5] concerns Acinetobacter baumannii. The series can be described thus: Antibacterial activity against colistin-resistant Acinetobacter baumannii ATCC 17978 mutant generated from seven serial passages by checkerboard assay. Format: functional.
For series [6], the system named is Acinetobacter baumannii. The series can be described thus: Antibacterial activity against wild type Acinetobacter baumannii ATCC 17978 assessed as resistant development at sub-MIC measured after 7 days of passaging by microbroth dilution method relative to control. The series is classed as functional.
Series [7] deals with Acinetobacter baumannii. In words: Potentiation of novobiocin-induced antibacterial activity against colistin-resistant Acinetobacter baumannii 92247 clinical isolate assessed as novobiocin MIC at <= 7.1 uM incubated for 18 hrs by CLSI protocol based assay (reference value: 4 ug/ml). Format: functional. Particulars: Acinetobacter baumannii, 92247, 18 h.
Series [8] relates to Pseudomonas aeruginosa. The series can be described thus: Induction of outer membrane permeabilization in Pseudomonas aeruginosa PAO1 assessed as increase in accumulation of NPN by measuring fluorescence intensity at 8 ug/ml measured immediately by NPN dye uptake assay. The series is classed as organism-based.
The subject of series [9] is Enterobacter cloacae. The series can be described thus: Potentiation of novobiocin-induced antibacterial activity against colistin-resistant Enterobacter cloacae 118568 clinical solate assessed as novobiocin MIC at <= 7.1 uM incubated for 18 hrs by CLSI protocol based assay (reference value: 1024 ug/ml). Particulars: Enterobacter cloacae, 118568, 18 h. Format: functional.

Series [10] concerns Klebsiella pneumoniae. In words: Potentiation of novobiocin-induced antibacterial activity against colistin-resistant Klebsiella pneumoniae 113254 clinical isolate assessed as novobiocin MIC at <= 7.1 uM incubated for 18 hrs by CLSI protocol based assay (reference value: 256 ug/ml). The series is classed as functional. Conditions: Klebsiella pneumoniae, 113254, 18 h.
Series [11] deals with Acinetobacter baumannii. The series can be described thus: Potentiation of novobiocin-induced antibacterial activity against novobiocin and colistin resistant Acinetobacter baumannii ATCC 17978 mutant generated from seven serial passages by checkerboard assay. Format: functional, organism-based.
The subject of series [12] is Pseudomonas aeruginosa. In words: Potentiation of novobiocin-induced antibacterial activity against carbapenem and colistin-resistant Pseudomonas aeruginosa 91433 clinical isolate assessed as novobiocin MIC at <= 7.1 uM incubated for 18 hrs by CLSI protocol based assay (reference value: 16 ug/ml). Format: functional. Conditions: Pseudomonas aeruginosa, 91433, 18 h.

In series [13] the test system is Escherichia coli. The series can be described thus: Potentiation of novobiocin-induced antibacterial activity against colistin-resistant Escherichia coli 94393 clinical isolate harboring mcr-1 gene assessed as novobiocin MIC at <= 7.1 uM incubated for 18 hrs by CLSI protocol based assay (reference value: 128 ug/ml). The series is classed as functional. Particulars: Escherichia coli, 94393, 18 h.

In series [14] the test system is Pseudomonas aeruginosa. The series can be described thus: Potentiation of novobiocin-induced antibacterial activity against carbapenem and colistin-resistant Pseudomonas aeruginosa 114228 clinical isolate assessed as novobiocin MIC at <= 7.1 uM incubated for 18 hrs by CLSI protocol based assay (reference value: 512 ug/ml). The series is classed as functional. Conditions: Pseudomonas aeruginosa, 114228, 18 h.

For series [15], the system named is Pseudomonas aeruginosa. The series can be described thus: Potentiation of novobiocin-induced antibacterial activity against colistin and carbapenem-resistant Pseudomonas aeruginosa 101243 clinical isolate assessed as novobiocin MIC at <= 7.1 uM incubated for 18 hrs by CLSI protocol based assay (reference value: 128 ug/ml). The series is classed as functional. Particulars: Pseudomonas aeruginosa, 101243, 18 h.

The subject of series [16] is Escherichia coli. The series can be described thus: Potentiation of novobiocin-induced antibacterial activity against colistin-resistant Escherichia coli 94474 clinical isolate harboring mcr-1 gene assessed as novobiocin MIC at <= 7.1 uM incubated for 18 hrs by CLSI protocol based assay (reference value: 256 ug/ml). Format: functional. Conditions: Escherichia coli, 94474, 18 h.

Series [17] deals with Pseudomonas aeruginosa. The series can be described thus: Potentiation of novobiocin-induced antibacterial activity against wild type Pseudomonas aeruginosa PAO1 assessed as novobiocin MIC at <= 7.1 uM incubated for 18 hrs by CLSI protocol based assay (reference value: 512 ug/ml). The series is classed as functional. Particulars: PAO1, 18 h.
Series [18] is described as follows: Toxicity in Galleria mellonella larvae MDR Acinetobacter baumannii isolate assessed as larvae protection at 25 mg/kg in combination with novobiocin measured after 24 to 96 hrs relative to control. Format: ADME, organism-based. Conditions: in vivo.
The subject of series [19] is Enterococcus faecium. The series can be described thus: Antibacterial activity against Enterococcus faecium ATCC 27270. The series is classed as functional.
For series [20], the system named is Staphylococcus aureus. The series can be described thus: Antibacterial activity against methicillin-resistant Staphylococcus aureus ATCC 33592. Format: functional.
Series [21] deals with Klebsiella pneumoniae. In words: Bacteriostatic activity against Klebsiella pneumoniae 116381 at 50.4 uM in LB media after 24 hrs by time-kill assay. Format: functional.
In series [22] the test system is Acinetobacter baumannii. In words: Antibacterial activity against wild type Acinetobacter baumannii ATCC 17978 assessed as resistant development at sub-MIC measured after 3 days of passaging by microbroth dilution method relative to control. Format: functional.
The subject of series [23] is Acinetobacter baumannii. The series can be described thus: Antibacterial activity against wild type Acinetobacter baumannii ATCC 17978 assessed as resistant development at sub-MIC measured after 5 days of passaging by microbroth dilution method relative to control. Format: functional. On the technique in general: In broth dilution the organism is exposed to a series of concentrations in liquid medium.

The test system of series [24] is Acinetobacter baumannii. In words: Bacteriostatic activity against Acinetobacter baumannii ATCC 17978 at 50.4 uM in LB media after 24 hrs by time-kill assay. The series is classed as functional, organism-based.
For series [25], the system named is Staphylococcus epidermidis. In words: Antibacterial activity against methicillin-resistant Staphylococcus epidermidis 61589. Format: functional.
A short description of series [26]: Toxicity in Galleria mellonella larvae MDR Acinetobacter baumannii isolate assessed as mortality at 100 mg/kg measured after 24 hrs relative to control. Format: ADME, organism-based. Particulars: in vivo, read-out: Activity.
For series [27], the system named is Escherichia coli. In words: Bactericidal activity against Escherichia coli ATCC […] at 50.4 uM in LB media after 24 hrs by time-kill assay. Format: functional, organism-based.
In series [28] the test system is Pseudomonas aeruginosa. In words: Bacteriostatic activity against Pseudomonas aeruginosa PAO1 at 50.4 uM in LB media after 24 hrs by time-kill assay. Format: functional, organism-based.

Consider `NC[C@H]1O[C@H](O[C@H]2[C@H](O)[C@@H](O[C@H]3O[C@H](CO)[C@@H](O)[C@H](N)[C@H]3O)[C@H](N)C[C@@H]2N)[C@H](N)C[C@@H]1O` [TOBRAMYCIN], for which the MIC in series [1] was 1 mg/L; in [2] it was 1 mg/L; in series [4] it was 1 mg/L; in series [5] it was 0.25 mg/L. Also, in series [3], the outcome was inactive. Moreover, the “fold change (FC)” value in series [6] came out at 512.
In the case of `CC(C)C[C@@H]1NC(=O)[C@@H](Cc2ccccc2)NC(=O)[C@H](CCN)NC(=O)[C@@H](NC(=O)[C@H](CCN)NC(=O)[C@@H](N)[C@@H](C)O)CCNC(=O)[C@H]([C@@H](C)O)NC(=O)[C@H](CCN)NC(=O)[C@H](CCN)NC1=O` [POLYMYXIN B NONAPEPTIDE] (H-T[Dab][Dab][Dab][dF]L[Dab][Dab]T; lactam 3-C), the MIC in [7] came to 1 mg/L; in series [9], 512 mg/L; in [10] it was 64 mg/L; in series [12], 4 mg/L; in series [13], 4 mg/L; in [14], 128 mg/L. The MIC came out at 8 mg/L in [15], 32 mg/L in series [16] and 4 mg/L in series [17]. Besides, the result in series [8] was Active. In [11], the result was inactive. Besides, the Activity in series [18] was 35%.
For the compound `CO[C@@H]1[C@@H](OC(N)=O)[C@@H](O)[C@H](Oc2ccc3c(O)c(NC(=O)c4ccc(O)c(CC=C(C)C)c4)c(=O)oc3c2C)OC1(C)C` [NOVOBIOCIN], the MIC in series [19] worked out at 2 mg/L (≈ 3.26 µM); in [20], 0.125 mg/L (≈ 0.204 µM); in [1], 2050 mg/L; in series [2], 128 mg/L; in series [4], 16 mg/L; in series [25], 0.0625 mg/L (≈ 0.102 µM). The MIC in series [5] is below 0.031 mg/L. Moreover, in series [21], the Activity is -1.87 CFU/ml. In addition, the “fold change (FC)” value in [22] is 64; in [23] it was 256. The outcome in [24], in series [27] and in series [28] was Active. Besides, in [26], the mortality at 24 h is 100%.
